The source of these data is US7915285B2, “Method for treating drug and behavioral addictions” (priority 2005, dated 2011).

Test [1] concerns dopamine release in the nucleus accumbens. The test is described as follows: In vivo microdialysis of nucleus accumbens dopamine (Example 3). The arrangement: species or system rat. As to conditions: naloxone given after the 60 minute sample. Here is the method: Dopamine release in the nucleus accumbens is thought to mediate the “reward” associated with drugs of abuse. […] After 3 baseline samples (20 minute inter-sample interval), morphine was administered to all rats. Dialysis samples were collected at 20 minute intervals for 180 minutes. To test behavioral withdrawal and reversal of morphine-induced dopamine, all rats were administered the opioid antagonist naloxone after the 60 minute sample time was completed.

The test system of test [2] is microglial activation marker CD11b. The test is described as follows: Brain immunohistochemistry and densitometry of microglial activation marker (Example 4). The class given is in vivo, rat. The note with it: chronic morphine administration, FIG. 6.
Method: Immunoreactivity for OX-42 (antibody that recognizes complement type 3 receptors, e.g., CD11b) and/or glial fibrillary acidic protein (GFAP), microglial and astrocyte activation markers, respectively, were assessed. Sections (20 μm) were treated with 0.3% H2O2 in Tris-buffered saline (TBS) for 20 minutes at room temperature to suppress endogenous peroxidase activity. Sections were then incubated overnight at 4° C. in monoclonal mouse anti-rat OX-42 (1:100; Pharmingen, San Diego, Calif.) or monoclonal mouse anti-rat GFAP antibody (1:200; Chemicon, Temecula, Calif.) in TBS with 2% normal goat serum and 0.5% Triton-X-100. Subsequently, sections were incubated with the appropriate secondary biotinylated antibodies (1:400; Jackson ImmunoResearch, West Grove, Pa.) for 2 hours at room temperature, incubated in avidin -biotin complex solution (ABC; 1:200; Vector Laboratories, Burlingame, Calif.) for 2 hours at room temperature, followed by reaction with 0.5 mg/ml 3,3′-diaminobenzidine tetrahydrochloride (DAB; Sigma). Finally, sections were dried, dehydrated, and coverslipped with Permount. Staining was evaluated by light microscopy. Densitometry of immunohistochemical staining was subsequently evaluated using computer software (NIH image).
A further test deals with interleukin-1 mRNA. The experiment in a line: mRNA analysis of brain nuclei by real-time PCR (Example 4). The class given is in vivo, rat. As to conditions: morphine; dorsal and ventral periaqueductal grey region, FIG. 8. For orientation: In qPCR the cycle at which signal appears reflects the starting amount.

Method for interleukin-1 mRNA: Following scoring of withdrawal behaviors animals received an intraperitoneal injection of 0.8 ml of 50 mg/ml sodium pentobarbital, and once anesthetized, animals were transcardially perfused. Half of each treatment group were perfused with saline and half with 4% paraformaldehyde. Spinal cord and brains were collected (saline perfusion for protein and mRNA quantification and paraformaldehyde perfusion for immunohistochemistry). Samples collected from saline perfused animals were flash frozen in liquid nitrogen and stored at −80° C. Paraformaldehyde perfused samples were stored in 4% paraformaldehyde for 48 hours and then transferred to 30% sucrose (0.1% azide) until tissue sectioning.
Amplification of cDNA was performed using the [sequence] […] Linearity and efficiency of PCR amplification were assessed using standard curves generated by increasing amounts of cDNA. SYBR green l fluorescence (PCR product formation) was monitored in real time using the MYIQ single color real-time PCR detection system (Bio-Rad). […] Linearity and efficiency of PCR amplification were assessed using standard curves generated by increasing amounts of cDNA. SYBR green 1 fluorescence (PCR product formation) was monitored in real time using the MYIQ single color real-time PCR detection system (Bio-Rad). […]

For `C=CCN1CC[C@]23c4c5ccc(O)c4O[C@H]2C(=O)CC[C@@]3(O)[C@H]1C5` [naloxone], in test [1], the “morphine-induced dopamine release after opioid antagonist” value is “reversed the morphine-induced dopamine release”.
As to `CN1CC[C@]23c4c5ccc(O)c4O[C@H]2[C@@H](O)C=C[C@H]3[C@H]1C5` [morphine], in test [2], the “CD11b staining after chronic administration” value is listed as “visible upregulation of the microglia activation marker CD11b”. Besides, the “interleukin-1 mRNA” value in the test on interleukin-1 mRNA is “dramatic increase in interleukin-1 mRNA in the dorsal, but not the ventral periaqueductal grey region”.
